The record followed here is ChEMBL document CHEMBL1151341, “Constituents of Nealchornea yapurenis (Euophorbiaceae)” (J Nat Prod, 1980).

This test concerns P388. The test can be described thus: Antitumor activity against mouse P388 cells xenografted in mouse at 50 to 400 mg/kg. The test is classed as functional, organism-based.

SMILES strings stand for the structures. Activity calls are given as the source filed them. No cut-off for these calls is given here.

Turning to `CC[C@H](CC[C@@H](C)[C@H]1CC[C@H]2[C@@H]3CC=C4C[C@@H](O)CC[C@]4(C)[C@H]3CC[C@]12C)C(C)C`, the result was inactive. Take `CC[C@H](CC[C@@H](C)[C@H]1CC[C@H]2[C@@H]3CC=C4C[C@@H](O[C@@H]5O[C@H](CO)[C@@H](O)[C@H](O)[C@H]5O)CC[C@]4(C)[C@H]3CC[C@]12C)C(C)C`: the result was inactive. `CCCCCCCCCCCCCCCCCCCCCCCCCC(=O)O`: the result was inactive. As for `COc1cc2ccc(=O)oc2cc1O`, the result was inactive.
